Experiment [1] deals with organoids from Nkx3.1^CreERT2/+; Pten^flox/flox; R26R-YFP/+ (NP) mice. The experiment is described as follows: Drug treatment of NP tumor organoids: efficiency of organoid formation. It counts as cell-based, mouse. Particulars: 1 nM MK-8669; for Frequency (efficiency of organoid formation), Average: average of 3 wells; for Frequency (efficiency of organoid formation), Average / Total organoids counted / Frequency (efficiency of organoid formation): 1000 cells/well, 100 nM DHT control, or without DHT: 10 μM enzalutamide; for Total organoids counted / Frequency (efficiency of organoid formation): single wells, counted after 8 days; for Frequency (efficiency of organoid formation): third passage, embedded in Matrigel; for effect on organoid formation: treatment cultures without DHT, 10 μM enzalutamide. On the procedure:
Next it was determined whether tumor organoids could be utilized to assess drug response, using organoids from Nkx3.1^CreERT2/+; Pten^flox/flox; R26R-YFP/+ (NP) mice, which were previously used to analyze therapeutic response in vivo [48]. […] To assess therapeutic response, YFP-positive prostate cells were isolated from tamoxifen-induced NP mice for organoid culture, and subsequently dissociated organoids at the third passage to single cell suspensions, followed by plating at 1,000 cells/well embedded within Matrigel/culture medium. Control cultures were established in the presence of DHT, while treatment cultures were established without DHT.
For serial passaging experiments, organoids were passaged at a 1:4 dilution every 1-2 weeks with 0.25% trypsin for 5 minutes at 37° C., followed by mechanical dissociation to nearly single-cell suspensions. Organoids were frozen in complete media with 50% FBS and 10% DMSO. The efficiency of organoid formation was calculated by averaging the number of organoids visible in each well after 7 days of growth using a 10× objective. For statistical analyses, efficiency percentages were arcsin converted to perform unpaired two-tailed Student's t-tests.
The embedding method was used to culture organoids for drug treatment experiments. […] 40 μl of the resulting cell suspension containing 500-3,000 dissociated cells were mixed with 60 μl of Matrigel, and the mixture pipetted around the rim of wells in a 24 well plate. The mixture was allowed to solidify for 30 minutes at 37° C., prior to addition of 400 μl organoid culture medium to each well, with or without supplementation with 100 nm DHT in the presence or absence of drugs. The culture medium was changed every other day, and organoids were counted after 8 days. Drugs were dissolved in DMSO to generate a final concentration of 0.1% in all drug-treated groups. Drug concentrations were as follows: 100 nM DHT, no additions, 0.1% DMSO, 10 μM enzalutamide (provided by Charles Sawyers, Memorial Sloan-Kettering Cancer Center), 1 nM MK-8669 (provided by Cory Abate-Shen, Columbia University Medical Center).

Experiment [2] deals with AR-regulated genes. To be noted: after DHT withdrawal, passage 1. On the procedure: (§1) To examine the effects of androgen-deprivation, organoids established from normal prostate epithelium were cultured and passaged in the presence or absence of DHT. […] To assess the molecular response to androgen-deprivation, quantitative RT-PCR (qPCR) analysis of the expression of several known AR-regulated genes was performed at passage 1.
For RNA extraction, 4-6 wells of organoids were pooled, pelleted, and dissolved in Trizol reagent prior to processing by the MagMAX 96 Total RNA Isolation Kit (Ambion, Life Technologies). 300-500 ng of RNA was used for cDNA synthesis using the Superscript First Strand Synthesis System (Invitrogen). Quantitative real-time PCR was carried out using SYBR green master mix reagent (QIAGEN) in the Realplex2 instrument (Eppendorf). cDNA samples were diluted 1:5 to 1:10 for all analyses, which were performed in triplicate. Expression values were obtained using the ΔΔCT method and normalized to GAPDH expression; average values are shown as the mean±standard deviation (SD).

Experiment [3] relates to organoids established from normal prostate epithelium. Particulars: absence of DHT versus presence of DHT, after passaging. On the procedure:
as §1

Experiment [4] relates to AR. On the procedure: as §1
In experiment [5] the test system is AR. To be noted: NPK-CARN organoids.
Excerpt: In particular, Nkx3.1^CreERT2/+; Pten^flox/flox; Kras^LSL-G12D/+; R26R-YFP/+ mice (termed NPK) were castrated and induced with tamoxifen, so that combined Pten deletion, Kras^G12D activation, and YFP expression occurred specifically in CARNs (FIG. 33A). Transformed lineage-marked CARNs were isolated by flow cytometry on the basis of their YFP expression, and used for organoid culture.
For immunostaining, sections underwent antigen-retrieval by boiling in citrate acid-based antigen unmasking solution (Vector Labs) for 10 min. Primary antibodies were applied to sections and incubated at 4° C. overnight in a humidified chamber. Alexa Fluors (Life Technologies) were used for secondary antibodies. Tyramide amplification (Life Technologies) or ABC Elite (Vector Labs) kits were used for signal detection.

Several values for one entry are separate records, joined by “and”; a condition that tells them apart may be missing. Equal entries are not always repeated. Where two headings read alike, the source gives them in different places.

Consider `CO[C@H]1C[C@@H]2CC[C@@H](C)[C@@](O)(O2)C(=O)C(=O)N2CCCC[C@H]2C(=O)O[C@H]([C@H](C)C[C@@H]2CC[C@@H](OP(C)(C)=O)[C@H](OC)C2)CC(=O)[C@H](C)/C=C(\C)[C@@H](O)[C@@H](OC)C(=O)[C@H](C)C[C@H](C)/C=C/C=C/C=C/1C` [MK-8669, ridaforolimus], for which, in experiment [1], the “Frequency (efficiency of organoid formation), Average” value (shortened to “Frequency … Average”) is on record as 15.9%; the Total organoids counted is 179 and 154 and 145; the “Frequency (efficiency of organoid formation)” value is 17.9% and 15.4% and 14.5%; the “effect on organoid formation” value is “minimal effects”.

Regarding `C[C@]12CCC(=O)C[C@@H]1CC[C@@H]1[C@@H]2CC[C@]2(C)[C@@H](O)CC[C@@H]12` [DHT, dihydrotestosterone], in experiment [2], the “expression of Fkbp5, Mme, and Psca” value is “down-regulated”; the “expression of Igfbp3” value is listed as “up-regulated”. Further, the organoid size result in experiment [3] is recorded as “reduced in size”. In addition, the AR immunostaining entry in experiment [4] (in the absence of DHT) is “weaker and mostly cytoplasmic”. Moreover, the AR immunostaining result in experiment [4] (in the presence of DHT) is on record as “nuclear”. In experiment [5] (in the absence of DHT), the AR localisation entry is recorded as “mostly cytoplasmic AR”. Besides, in experiment [5] (in the presence of DHT), the AR localisation result is recorded as “nuclear AR”. In experiment [1], the “Frequency … Average” value was 17.4%; the Total organoids counted was 166 and 194 and 162; the “Frequency (efficiency of organoid formation)” value was 16.6% and 19.4% and 16.2%.

`CNC(=O)c1ccc(N2C(=S)N(c3ccc(C#N)c(C(F)(F)F)c3)C(=O)C2(C)C)cc1F` [Enzalutamide, enzalutamide]: in experiment [1], the “Frequency … Average” value came out at 14.9%; the Total organoids counted was 134 and 163 and 150; the “Frequency (efficiency of organoid formation)” value was 13.4% and 16.3% and 15.0%; the “effect on organoid formation” value was “minimal effects”.

Source of the values: US9771562B2, “Method for culture of human and mouse prostate organoids and uses thereof” (THE TRUSTEES OF COLUMBIA UNIVERSITY IN THE CITY OF NEW YORK, priority 2012, dated 2017).
